From PMC7112848 (Journal of Virological Methods, 2008) come the findings set out here.

One test deals with rgH5N1 NA (Influenza A virus, UniProt Q6DPL2). The format is biochemical.
The subject of the next test is viral NAs. It is filed as biochemical, reverse-genetic influenza A viruses rgH1N1, rgH5N1, rgH1N3.

Chain of rgH5N1 NA (Q6DPL2 whole entry, looked up): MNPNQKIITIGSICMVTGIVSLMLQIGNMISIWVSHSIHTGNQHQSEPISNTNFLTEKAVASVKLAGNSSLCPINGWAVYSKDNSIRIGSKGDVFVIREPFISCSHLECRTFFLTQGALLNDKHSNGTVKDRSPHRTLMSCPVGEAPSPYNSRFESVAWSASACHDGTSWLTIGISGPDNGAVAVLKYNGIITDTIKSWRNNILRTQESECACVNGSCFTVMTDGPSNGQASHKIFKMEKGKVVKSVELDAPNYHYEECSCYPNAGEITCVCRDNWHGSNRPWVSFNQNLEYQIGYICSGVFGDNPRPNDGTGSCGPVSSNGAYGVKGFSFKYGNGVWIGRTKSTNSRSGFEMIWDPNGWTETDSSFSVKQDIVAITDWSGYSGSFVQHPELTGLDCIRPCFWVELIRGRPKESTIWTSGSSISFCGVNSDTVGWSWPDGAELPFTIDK

By Km is commonly meant the concentration of substrate that gives half-maximal velocity. Take `CC(=O)N[C@@H]1[C@@H](O)C[C@](Oc2ccc3c(C)cc(=O)oc3c2)(C(=O)O)O[C@H]1C(O)[C@H](O)CO` (stereo partly drawn) [MUNANA, 2′-(4-methylumbelliferyl)-α-D-N-acetylneuraminic acid]: the Km is 15 ± 3 µM at rgH5N1 NA and 15 to 18 µM in the test with viral NAs.
